Measured values: patent publication US8207293B2, “Peptides derived from maurocalcine used as vectors for intracellular addressing of molecules of interest” (Commissariat a l'Energie Atomique, priority 2004, dated 2012)
pEC50: −log10 of the molar value. Like-named read-outs stand apart in the source and are kept apart here.

Tests used:
[1] = system: HEK293 cells; experiment: Cell penetration and subcellular distribution of complexes in HEK293 cells, confocal microscopy; type: cell-based, human; conditions: 333 nM, 30 min
Protocol: Soluble streptavidin-cyanin 3 and streptavidin-cyanin 5 (Strept-Cy^3 and Strept-Cy^5, AMERSHAM) were mixed with 4 molar equivalents of biotinylated maurocalcine (1 mM) or biotinylated maurocalcine-derived peptide, in phosphate buffer (PBS, in mM: 136 NaCl, 1.47 Na2HPO4, 2.6 KCl, 1 CaCl2, 0.5 MgCl2, pH 7.2), for 2 hours at 37° C. and in the dark.
The human embryonic kidney cells (HEK 293 line, ATCC) are divided before confluence, by treatment with trypsin (1%), and are maintained in DMEM medium (INVITROGEN) containing 10% of inactivated fetal calf serum (INVITROGEN) and 1% of penicillin/streptomycin (INVITROGEN), in a CO2 incubator (5%). The culture medium is changed every 2 days.
The cells were incubated with maurocalcine and the derived peptides, biotinylated and complexed with streptavidin-cyanin 3 or with streptavidin-cyanin 5, […], in the dark and at ambient temperature, for 30 minutes to 1 hour. After 3 washes in PBS, the cells are fixed at ambient temperature, in a paraformaldehyde solution (4%), for 10 min, in the dark, washed in PBS and incubated for one hour with FITC-conjugated concanavalin (MOLECULAR PROBES, 5 μg/ml) in order to label the plasma membrane, and TO-PRO-3 iodide (MOLECULAR PROBES, 1 μM) in order to label the nucleus. In order to label the cytoskeleton, the cells were fixed and permeabilized with ice-cold methanol, for 10 min, washed twice in PBS and incubated with a mouse anti-alpha-tubulin antibody (1:1000, SIGMA), for 2 hours. After two washes in PBS, the cells were incubated for one hour with an anti-mouse IgG secondary antibody conjugated to Alexa 488 (1:1000, MOLECULAR PROBES). The cultures were then mounted in Vectashield mounting medium (VECTOR LABORATORIES). Preparations were observed by laser scanning confocal microscopy, using a Leica TCS-SP2 control system. The Alexa-488 and Cy3 or propidium iodide (PI) fluorescences were excited sequentially and then recorded. The Cy3 fluorescence was excited using a 543 nm helium-neon laser beam and the fluorescence emission was recorded between 554 nm and 625 nm. The images were introduced into Adobe Photoshop 7.0.

[2] = system: HEK293 cells; experiment: Flow cytometry analysis of cellular penetration of complexes (trypsin/heparin treatment); type: cell-based, human; conditions: for penetrating activity compared with maurocalcine (factor): biotinylated variant/Strept-Cy3 complexes, FIG. 5
Protocol: The cells are incubated with maurocalcine and the derived peptides, biotinylated and complexed with […], at the final concentration of 100 nM in PBS, in the dark and at ambient temperature for 1 hour. After 2 washes in PBS (PBS, in mM: […], 6.84 Na2HPO4, 3.16 NaH2PO4, pH 7.2), and the cells were treated with trypsin (1 mg/ml, INVITROGEN), for 10 min at 37° C., in order to remove the extracellular complexes and the plasma-membrane-bound complexes. After the incubation with trypsin, the cell suspension was centrifuged at 500 g and the cells were resuspended in PBS containing 1 μg/ml of propidium iodide (SIGMA). […] The analysis was carried out on live cells, using a flow cytometer (FACScalibur, BECTON DICKINSON). The data were recorded and analyzed using appropriate software (CellQuest, BD BIOSCIENCES). The live cells were sorted according to their size and their granulosity (forward/side scattering), over a total of 10 000 events.
The analysis is carried out as described in Example 1. For the heparin treatment experiments, the complexes were prepared in a heparin solution (bovine intestine heparin, sodium salt, SIGMA) and the cells were washed twice with the heparin solution, before and after incubation with the complexes prepared in the same heparin solution.
The cellular penetration was analyzed by flow cytometry, on cells incubated with the MCab/Strept-Cy3 complexes, and then treated with trypsin, so as to remove the complexes bound to the plasma membrane by means of lipids, specific receptors or heparan sulfate glycosaminoglycan (HPSG). It has been shown that this method makes it possible to effectively study the entry of penetrating peptides into cells (Richard et al., J. Biol. Chem., 2003, 278, 585-590).

[3] = target: T1, RyR1 receptor (Oryctolagus cuniculus, UniProt P11716); experiment: Tritiated ryanodine binding assay on heavy sarcoplasmic reticulum vesicles; conditions: biotinylated variants complexed with Strept-Cy3, increasing concentrations
T1 construct: from tissue; host or cells: heavy sarcoplasmic reticulum vesicles (skeletal muscle implied)
T1 sequence (P11716 whole entry): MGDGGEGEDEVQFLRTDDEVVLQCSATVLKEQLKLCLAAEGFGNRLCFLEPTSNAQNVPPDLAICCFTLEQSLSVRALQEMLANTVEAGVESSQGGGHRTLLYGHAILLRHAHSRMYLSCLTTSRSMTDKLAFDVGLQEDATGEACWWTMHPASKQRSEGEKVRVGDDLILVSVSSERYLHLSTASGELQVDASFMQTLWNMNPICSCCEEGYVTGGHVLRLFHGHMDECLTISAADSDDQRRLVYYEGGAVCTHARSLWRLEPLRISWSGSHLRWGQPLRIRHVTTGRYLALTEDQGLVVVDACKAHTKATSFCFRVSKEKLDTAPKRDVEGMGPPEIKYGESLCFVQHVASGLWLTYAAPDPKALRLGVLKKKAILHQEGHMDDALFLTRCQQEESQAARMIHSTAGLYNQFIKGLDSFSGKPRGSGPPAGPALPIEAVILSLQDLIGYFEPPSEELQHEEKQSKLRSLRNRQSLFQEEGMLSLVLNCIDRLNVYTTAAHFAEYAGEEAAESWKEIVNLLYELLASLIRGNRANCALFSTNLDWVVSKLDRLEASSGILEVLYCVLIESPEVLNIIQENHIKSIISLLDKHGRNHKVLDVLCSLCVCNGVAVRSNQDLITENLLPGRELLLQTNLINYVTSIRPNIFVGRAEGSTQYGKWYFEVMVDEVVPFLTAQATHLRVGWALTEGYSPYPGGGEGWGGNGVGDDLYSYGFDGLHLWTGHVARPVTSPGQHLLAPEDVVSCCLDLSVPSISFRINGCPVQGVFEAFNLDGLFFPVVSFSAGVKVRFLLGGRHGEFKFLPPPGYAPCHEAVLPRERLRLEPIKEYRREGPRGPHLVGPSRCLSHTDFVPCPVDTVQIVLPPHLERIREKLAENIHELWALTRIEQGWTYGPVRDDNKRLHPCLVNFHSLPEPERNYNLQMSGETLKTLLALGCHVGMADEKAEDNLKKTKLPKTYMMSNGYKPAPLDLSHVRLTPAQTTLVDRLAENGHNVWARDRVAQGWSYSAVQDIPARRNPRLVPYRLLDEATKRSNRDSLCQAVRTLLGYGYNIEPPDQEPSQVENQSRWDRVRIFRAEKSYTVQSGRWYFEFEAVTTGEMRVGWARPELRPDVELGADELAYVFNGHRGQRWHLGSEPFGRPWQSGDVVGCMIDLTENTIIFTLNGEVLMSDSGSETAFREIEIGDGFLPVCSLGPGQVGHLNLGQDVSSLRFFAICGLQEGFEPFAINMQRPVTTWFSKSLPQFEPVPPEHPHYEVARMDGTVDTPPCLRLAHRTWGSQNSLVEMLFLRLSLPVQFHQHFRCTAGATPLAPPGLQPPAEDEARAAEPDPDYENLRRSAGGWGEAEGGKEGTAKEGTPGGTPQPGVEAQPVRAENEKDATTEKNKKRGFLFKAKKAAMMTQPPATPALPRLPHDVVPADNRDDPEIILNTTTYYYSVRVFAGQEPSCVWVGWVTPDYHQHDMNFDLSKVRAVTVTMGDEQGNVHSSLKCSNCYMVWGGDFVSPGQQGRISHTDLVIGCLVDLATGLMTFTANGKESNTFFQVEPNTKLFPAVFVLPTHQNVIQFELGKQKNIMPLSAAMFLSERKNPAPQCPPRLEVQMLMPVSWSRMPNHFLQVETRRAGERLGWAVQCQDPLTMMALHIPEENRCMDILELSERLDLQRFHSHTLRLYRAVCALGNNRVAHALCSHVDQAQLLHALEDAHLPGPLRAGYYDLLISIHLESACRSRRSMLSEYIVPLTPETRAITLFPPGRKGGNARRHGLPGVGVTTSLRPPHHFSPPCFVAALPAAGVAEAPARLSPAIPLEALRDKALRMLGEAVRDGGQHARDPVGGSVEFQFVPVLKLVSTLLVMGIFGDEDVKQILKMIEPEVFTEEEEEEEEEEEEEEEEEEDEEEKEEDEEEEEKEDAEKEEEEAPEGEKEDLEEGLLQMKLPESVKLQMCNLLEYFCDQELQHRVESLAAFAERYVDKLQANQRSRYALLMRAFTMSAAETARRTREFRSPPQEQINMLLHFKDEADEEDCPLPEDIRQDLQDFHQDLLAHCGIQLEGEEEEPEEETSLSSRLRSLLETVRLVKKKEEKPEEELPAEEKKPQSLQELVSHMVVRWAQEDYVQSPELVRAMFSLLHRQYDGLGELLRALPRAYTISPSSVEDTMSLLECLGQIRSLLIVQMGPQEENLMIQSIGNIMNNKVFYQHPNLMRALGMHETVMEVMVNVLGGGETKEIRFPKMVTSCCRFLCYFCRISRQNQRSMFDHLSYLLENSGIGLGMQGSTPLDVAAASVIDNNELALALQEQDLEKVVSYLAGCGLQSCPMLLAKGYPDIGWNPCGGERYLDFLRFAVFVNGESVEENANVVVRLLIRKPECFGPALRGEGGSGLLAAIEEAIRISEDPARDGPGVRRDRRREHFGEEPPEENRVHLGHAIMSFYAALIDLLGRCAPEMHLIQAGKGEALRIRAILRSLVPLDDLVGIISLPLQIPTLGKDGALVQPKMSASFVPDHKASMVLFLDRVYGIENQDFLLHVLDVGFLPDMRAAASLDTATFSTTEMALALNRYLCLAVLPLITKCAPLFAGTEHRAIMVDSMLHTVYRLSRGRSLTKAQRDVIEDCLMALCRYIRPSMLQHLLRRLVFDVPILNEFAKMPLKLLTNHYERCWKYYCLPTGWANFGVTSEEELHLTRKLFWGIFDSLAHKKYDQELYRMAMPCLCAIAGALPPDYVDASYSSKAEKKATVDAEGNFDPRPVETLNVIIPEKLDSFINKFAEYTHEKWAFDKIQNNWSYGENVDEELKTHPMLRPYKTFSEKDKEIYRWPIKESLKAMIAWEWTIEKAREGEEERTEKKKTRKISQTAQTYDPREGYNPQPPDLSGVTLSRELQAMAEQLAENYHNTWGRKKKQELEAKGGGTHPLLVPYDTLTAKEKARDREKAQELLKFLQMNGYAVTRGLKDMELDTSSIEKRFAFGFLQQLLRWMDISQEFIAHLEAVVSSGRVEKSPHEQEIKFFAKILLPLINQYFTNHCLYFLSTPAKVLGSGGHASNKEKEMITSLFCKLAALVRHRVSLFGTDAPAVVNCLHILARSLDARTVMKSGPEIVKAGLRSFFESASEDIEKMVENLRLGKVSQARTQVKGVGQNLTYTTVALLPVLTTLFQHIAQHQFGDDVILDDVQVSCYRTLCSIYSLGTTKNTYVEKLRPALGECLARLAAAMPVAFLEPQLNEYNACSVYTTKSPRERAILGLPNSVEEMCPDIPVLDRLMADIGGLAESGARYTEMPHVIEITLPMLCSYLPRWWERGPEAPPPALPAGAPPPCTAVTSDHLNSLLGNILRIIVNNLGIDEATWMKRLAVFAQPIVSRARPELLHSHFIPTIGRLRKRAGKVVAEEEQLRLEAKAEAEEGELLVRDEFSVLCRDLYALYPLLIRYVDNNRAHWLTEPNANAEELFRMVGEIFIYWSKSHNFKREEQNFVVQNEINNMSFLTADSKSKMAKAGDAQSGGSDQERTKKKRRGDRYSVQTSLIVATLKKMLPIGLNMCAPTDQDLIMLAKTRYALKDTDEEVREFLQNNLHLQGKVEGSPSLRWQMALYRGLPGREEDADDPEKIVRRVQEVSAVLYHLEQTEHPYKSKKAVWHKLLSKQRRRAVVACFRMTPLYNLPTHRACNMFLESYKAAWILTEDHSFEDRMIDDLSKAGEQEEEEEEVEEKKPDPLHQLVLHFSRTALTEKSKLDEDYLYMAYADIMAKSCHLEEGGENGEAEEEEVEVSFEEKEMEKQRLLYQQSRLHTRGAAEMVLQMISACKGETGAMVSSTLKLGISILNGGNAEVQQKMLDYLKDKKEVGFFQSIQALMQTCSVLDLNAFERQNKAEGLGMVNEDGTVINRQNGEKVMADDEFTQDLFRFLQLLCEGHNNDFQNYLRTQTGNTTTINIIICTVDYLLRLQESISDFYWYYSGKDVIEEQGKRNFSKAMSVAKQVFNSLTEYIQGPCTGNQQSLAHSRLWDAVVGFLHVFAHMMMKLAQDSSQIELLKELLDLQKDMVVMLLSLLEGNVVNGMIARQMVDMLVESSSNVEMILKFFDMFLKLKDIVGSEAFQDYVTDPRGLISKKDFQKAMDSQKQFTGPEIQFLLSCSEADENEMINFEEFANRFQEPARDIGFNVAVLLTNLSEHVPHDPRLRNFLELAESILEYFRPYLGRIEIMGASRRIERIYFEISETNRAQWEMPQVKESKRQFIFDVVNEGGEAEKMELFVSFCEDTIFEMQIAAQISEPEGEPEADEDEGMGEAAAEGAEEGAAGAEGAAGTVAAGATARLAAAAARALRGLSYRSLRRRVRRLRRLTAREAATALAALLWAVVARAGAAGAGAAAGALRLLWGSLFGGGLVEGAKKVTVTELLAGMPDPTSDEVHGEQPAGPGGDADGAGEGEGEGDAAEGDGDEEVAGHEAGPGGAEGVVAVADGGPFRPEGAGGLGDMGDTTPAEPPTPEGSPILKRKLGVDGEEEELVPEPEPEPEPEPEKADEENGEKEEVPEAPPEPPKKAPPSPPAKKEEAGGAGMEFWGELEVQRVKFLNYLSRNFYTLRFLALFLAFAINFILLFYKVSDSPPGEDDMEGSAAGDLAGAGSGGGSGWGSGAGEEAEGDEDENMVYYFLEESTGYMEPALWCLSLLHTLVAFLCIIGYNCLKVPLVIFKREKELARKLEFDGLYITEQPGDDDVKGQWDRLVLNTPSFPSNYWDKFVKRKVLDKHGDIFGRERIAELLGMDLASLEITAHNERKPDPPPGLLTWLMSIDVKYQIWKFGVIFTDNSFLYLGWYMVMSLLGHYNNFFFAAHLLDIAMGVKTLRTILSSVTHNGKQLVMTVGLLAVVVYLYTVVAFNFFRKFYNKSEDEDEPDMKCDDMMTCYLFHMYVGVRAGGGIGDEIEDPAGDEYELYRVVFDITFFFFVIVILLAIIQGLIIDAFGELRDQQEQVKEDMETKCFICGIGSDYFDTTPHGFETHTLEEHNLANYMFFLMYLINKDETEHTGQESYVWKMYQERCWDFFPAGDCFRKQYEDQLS
Protocol: The heavy sarcoplasmic reticulum vesicles are prepared according to the method of Kim et al. (J. Biol. Chem., 1983, 258, 9662-9668) modified as described in Marty et al. (J. Biol. Chem., 2000, 275, 8206-8212). The protein concentration is measured by the Biuret method.
The heavy sarcoplasmic reticulum vesicles (1 mg/ml) are incubated at 37° C. for 2 hours and 30 min, in reaction buffer comprising 5 nM [^3H]-ryanodine, 150 mM NaCl, 2 mM EGTA, 2 mM Ca^2+ (pCa=5) and 20 mM Hepes, pH 7.4. Maurocalcine, the maurocalcine-derived peptides and their biotinylated derivatives are added before the addition of the heavy sarcoplasmic reticulum vesicles. The [^3H]-ryanodine bound to the heavy sarcoplasmic vesicles is measured by filtration through Whatmann GF/B filters, followed by three washes with 5 ml of ice-cold washing buffer (150 mM NaCl, 20 mM Hepes, pH 7.4). The [^3H]-ryanodine retained on the filters is measured by liquid scintillation. The nonspecific binding is measured in the presence of […] ryanodine (20 μM). The results are given in the form of means±standard deviation. Each experiment is carried out in triplicate and repeated at least twice.

[4] = Surface pressure of monomolecular lipid films (GD3)
Protocol: (§1) The disialoganglioside NeuAcα2-8NeuAca2-3Galb1-aGlcb1-Cer (GD3) and dipalmitoylphosphatidylcholine (DPPC) were provided respectively by MATREYA INC and SIGMA.
(§2) The surface pressure was measured using an automatic microtensiometer (μ THROUGH SX, KIBRON INC.). The apparatus makes it possible to record kinetics of interaction of a ligand with a monomolecular film using a series of appropriate Teflon probes. All the experiments were carried out in a controlled atmosphere at 20±1. The molecular films of the lipids indicated were deposited onto an aqueous phase of ultrapure water (800 μl), using hexane:chloroform:ethanol (11:5:4, v/v/v), as described previously (Mahfoud et al., J. Biol. Chem., 2002, 277, 11292-11296). After spreading of the film, a minimum period of elapsed time of 5 min was observed, in order to allow the solvent to evaporate off. In order to measure the interaction of MCa with the lipid monolayers, various concentrations of peptides were injected into the monomolecular film with a […] Hamilton syringe and the resulting increase in pressure, produced by the incorporation of the peptide, was recorded until equilibrium was reached (maximum increase in surface pressure generally reached after an incubation of 100 to 150 min). For the dose-dependent interaction between MCa and GD3, the monomolecular films of GD3 were prepared at an initial surface pressure (pi) of 10 mN·m^−1. The results were analyzed with Filmware 2.5 software (KIBRON INC.). The system for measuring the surface pressures was accurate to 0.25 mN·m^−1 under the experimental conditions.

[5] = system: live cells; experiment: Flow cytometry analysis of cellular penetration at increasing extracellular KCl (membrane potential); type: cell-based
Protocol: The MCab-Strept-Cy^5 complexes were prepared in solutions containing various NaCl/KCl ratios (composition in mM: 145 to 5 NaCl, 5 to 145 KCl, 2.5 CaCl2, 1.2 MgCl2, 10 glucose, 10 HEPES, pH 7.4).
The cells were washed twice with the NaCl/KCl solution used to prepare the complexes, and then incubated with maurocalcine and the derived peptides, which are biotinylated and complexed with streptavidin-cyanin 3 (MCab-Strept-Cy^3 complexes), at the final concentration of 100 nM in the same NaCl/KCl solution, in the dark and at ambient temperature for 1 hour. After 2 washes in the same NaCl/KCl buffer, the cyanin 3 fluorescence was analyzed on live cells, using a flow cytometer (FACScalibur, BECTON DICKINSON). The data were recorded and analyzed using appropriate software (CellQuest, BD BIOSCIENCES). The live cells were sorted according to their size and their granulosity (forward/side scattering), over a total of 10 000 events.

[6] = Surface pressure of monomolecular lipid films (DPPC); conditions: 1 μM
Protocol: as §1
as §2, with “For the dose-dependent interaction between MCa and GD3, the monomolecular films of GD3 were prepared at an initial surface pressure (pi) of 10 mN·m^−1.” left out, “The system for measuring the surface pressures was accurate to 0.25 mN·m^−1 under the experimental conditions.” left out

## GDCLPHAKLCKENKDCCSKKCKRRGTNIEKRCR (maurocalcine L7A mutant)
[1]
  transduction of HEK293 cell cultures by biotinylated variant/Strept-Cy3 complexes: effectively transduce cell cultures
[2]
  penetrating activity compared with maurocalcine (factor): 5
[3]
  activity on the RyR1 receptor (stimulation of [3H]-ryanodine binding): less active on the RyR1 receptor than MCab/Strept-Cy3

## GDCLPHLKLCKENKDCCSKKCKRAGTNIEKRCR (maurocalcine R24A mutant)
[1]
  transduction of HEK293 cell cultures by biotinylated variant/Strept-Cy3 complexes: effectively transduce cell cultures
[2]
  penetrating activity compared with maurocalcine (factor): comparable to, or even slightly less than, maurocalcine
[3]
  activity on the RyR1 receptor (stimulation of [3H]-ryanodine binding): inactive

## GDCLPHLKLCKENKDCCSKKCKRRGTNIEKRCR [maurocalcine]
[2]; biotinylated peptide/Strept-Cy3 complexes, dose-response
  lowest concentration at which penetration into the cells occurs: 10 nM
[4]
  concentration at which interaction with GD3 is detectable: 100 nM
  concentration at which interaction with GD3 reaches a maximum: 750 nM
[4]; 1 μM MCa, GD3 film
  maximum increase in surface pressure a (kinetics fit): 22.9 mN·m^−1
  time constant for the change in surface pressure b: 0.0003 s⁻¹
[4]; GD3 film, as a function of MCa concentration
  maximum increase in surface pressure a (dose-response fit): 22.1 mN·m^−1
[4]; read-out: concentration that produces 50% of the maximum effect on GD3
  pEC50: 6.30
[4]; sigmoidal fit, FIG. 11B, read-out: concentration X0 giving 50% of the maximum effect on GD3 surface pressure
  pEC50: 6.31
[5]
  limitation of penetration by depolarization (increase in extracellular KCl): approximately 50%
[6]
  change in surface pressure of the DPPC film: no significant change in surface pressure
